Laboratory results published in patent US7915050B2, “Regulatory genes for plant differentiation and growth, and use of the same” (National University Corporation Nagoya University, priority 2005, dated 2011).

How the values were obtained:
AtGID1a = biological target: T1, AtGID1a (Arabidopsis thaliana, UniProt Q9MAA7); test: Competitive ability of GA in AtGID1-GA binding (AtGID1a)
T1 construct: made in house; host or cells: E. coli
T1 sequence (Q9MAA7 1-345): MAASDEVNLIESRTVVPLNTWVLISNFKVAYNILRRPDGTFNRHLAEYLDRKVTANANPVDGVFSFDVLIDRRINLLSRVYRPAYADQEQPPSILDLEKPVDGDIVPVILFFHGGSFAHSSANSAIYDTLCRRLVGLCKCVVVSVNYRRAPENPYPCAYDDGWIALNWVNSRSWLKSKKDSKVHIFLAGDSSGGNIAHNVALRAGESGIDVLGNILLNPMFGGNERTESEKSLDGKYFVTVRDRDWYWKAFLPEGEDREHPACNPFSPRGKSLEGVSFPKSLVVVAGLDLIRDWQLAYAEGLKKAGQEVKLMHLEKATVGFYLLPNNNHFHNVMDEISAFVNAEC
Protocol: In the gibberellin-binding assay, [1,2,16,17-^3H4]16,17-dihydro-GA4 was used as a labeled GA4. In vitro GA-binding assays were carried out using previous methods with some modifications (Nakajima, M. et al., Biochem. Biophys. Res. Comm. 241, 782-786 (1997)). The purified recombinant GID1 protein (400 pmol) was dissolved in 300 μl of binding buffer [20 mM Tris-HCl (pH 7.6), 5 mM 2-mercaptoethanol, and 0.1 M NaCl], and incubated with 100 μl of ^3H4-16,17-dihydroGA4 (6 pmol) for two hours at 25° C., either in the absence of non-labeled GA4 (total binding) or in the presence of 833-fold excess non-labeled GA4 (total non-specific binding). Then, 0.1 ml of the reaction mixture was loaded onto a NAP-5 column (Amersham Biosciences, Piscataway, N.J.). The eluate of the binding buffer (0.6 ml) was discarded, the subsequent eluate (0.2 ml) was collected, and the radioactivity was measured. The specific binding activity, reflecting the number of displaceable GA binding sites, was calculated by subtracting the amount of nonspecific binding from the amount of total binding. The same as above can also be carried out for other GAs.
Specifically, the coding region of the AtGID1 gene was amplified by PCR using specific primers designed based on the full-length cDNA sequence of the AtGID1 gene and having appropriate restriction sites at each end. After confirmation by sequence analysis, each cDNA fragment was ligated into pET32a vector (Novagen/Merck Biosciences, Madison, Wis., USA) or pGEX-4T-2 vector (Amersham Biosciences, Piscataway, N.J., USA; currently, a part of GE Healthcare). The production of recombinant proteins was confirmed by SDS-PAGE; vector cassettes were used as negative controls. GA binding assays were carried out similarly as described above using [1,2,16,17-^3H4]-16,17-dihydro-GA4 (4.55 TBq/mmol), which was custom-made by DuPont/NEN (Boston, Mass., USA). Non-labeled GA4 (1.25 mM) was used to measure non-specific binding. Saturation experiments for the kinetic analysis were carried out using ten concentrations of 16,17-dihydro-GA4 within the range of 25 to 1,500 nM. Competition assays were performed using [1,2,16,17-^3H4]-16,17-dihydro-GA4 at 15 nM and five concentrations of the non-labeled competitor. Recombinant RGA and GAI proteins were prepared using pET32a by a previously described method.
The ligand selectivity of each AtGID1 was examined by observing the competitive inhibition, by the addition of GA to the assay mixtures, of the binding between the recombinant proteins and tritiated 16,17-dihydro-GA4 (Table 2). The ligand selectivity was evaluated using the concentration of GA that inhibits 50% of the tracer (15 nM) binding (IC50 value).

AtGID1b = biological target: T2, AtGID1b (Arabidopsis thaliana, UniProt Q9LYC1); test: Scatchard analysis of GA binding of AtGID1b; conditions: equilibrium conditions
T2 construct: made in house; host or cells: E. coli
T2 sequence (Q9LYC1 1-358): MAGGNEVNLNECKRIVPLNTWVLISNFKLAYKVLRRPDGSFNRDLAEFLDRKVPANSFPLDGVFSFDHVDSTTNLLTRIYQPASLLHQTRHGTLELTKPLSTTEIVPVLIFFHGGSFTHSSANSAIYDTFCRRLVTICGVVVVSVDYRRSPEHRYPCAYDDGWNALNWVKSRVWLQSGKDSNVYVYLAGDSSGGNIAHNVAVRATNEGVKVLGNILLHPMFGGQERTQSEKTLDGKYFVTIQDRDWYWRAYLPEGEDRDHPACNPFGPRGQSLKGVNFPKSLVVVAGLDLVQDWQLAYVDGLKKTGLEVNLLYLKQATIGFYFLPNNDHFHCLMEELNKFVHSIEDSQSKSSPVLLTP
Protocol: Panels A) to C) depict the results of Scatchard plot analyses for the GA binding of AtGID1. Results for AtGID1a (A), AtGID1b (B), and AtGID1c (C) are shown. The Kd values for 16,17-dihydro-GA4 was determined by adding various concentrations of GA to the assay mixture. Standard deviation (SD) was determined from these three independent measurements. The insets show time-course characteristics for the GA binding of AtGID1 and replacement (arrow) using an excess amount of non-labeled GA4 (0.125 mM). Panels D) to F) depict the GA binding activities of AtGID1 under different pH conditions. Results for AtGID1a (D), AtGID1b (E), and AtGID1c (F) are shown. The non-specific binding activity (UB) was determined by adding 0.125 mM GA4 to the assay solution, and this was subtracted from the total binding activity (B) to determine the specific binding activity (B-UB).
Specifically, the coding region of the AtGID1 gene was amplified by PCR using specific primers designed based on the full-length cDNA sequence of the AtGID1 gene and having appropriate restriction sites at each end. […]
The kinetics, ligand selectivity, and pH dependence of GA binding for the three AtGID1s identified as described above were examined using the tritiated GA4 derivative 16,17-dihydro-GA4. […] Furthermore, the kinetics of GA binding of each AtGID1 was analyzed under equilibrium conditions of GA at various concentrations.

In the case of `CC1C[C@]23C[C@H]1CCC2[C@]12CC[C@H](O)[C@](C)(C(=O)O1)[C@H]2[C@@H]3C(=O)O` (stereo partly drawn) [H2-GA4, 16,17-dihydro-GA4], the “relative value, taking the value for GA4 as 100” value (AtGID1a) is reported as “(8) %”, the IC50 (AtGID1a; tracer 15 nM, mean of at least two measurements) is reported as 4 µM and the Kd (AtGID1b) is reported as 480 nM.
